The nature of data set [1]: Hemolytic activity in sheep erythrocytes. The data set is classed as ADME, cell-based, Ovis aries, Erythrocyte.
Data set [2] deals with Pseudomonas aeruginosa. The data set is described as follows: Antibacterial activity against Pseudomonas aeruginosa NBRC 3080. The data set is classed as functional.
Data set [3] deals with Escherichia coli. The data set is described as follows: Antibacterial activity against Escherichia coli NBRC 12734. The data set is classed as functional.
In a further data set the test system is Bacillus subtilis. The data set is described as follows: Antibacterial activity against Bacillus subtilis NBRC 3513. It counts as functional.
Data set [4] has as its system Staphylococcus aureus. The data set is described as follows: Antibacterial activity against Staphylococcus aureus NBRC 12732. It counts as functional.
The next data set concerns Priestia megaterium. In words: Antibacterial activity against Bacillus megaterium ATCC 19213. It counts as functional.
Data set [5] relates to Staphylococcus aureus. In words: Antibacterial activity against Staphylococcus aureus ATCC 49975 after 16 to 20 hrs by broth microdilution method. It counts as functional. For orientation: In broth dilution the organism is exposed to a series of concentrations in liquid medium.
The test system of data set [6] is Escherichia coli. The data set is described as follows: Antibacterial activity against Escherichia coli ATCC 25922 after 24 hrs. It counts as functional. The conditions noted are these: ATCC 25922, 24 h.
The test system of data set [7] is Pseudomonas aeruginosa. In words: Antibacterial activity against Pseudomonas aeruginosa ATCC 27853 incubated for 24 hrs. The conditions noted are these: ATCC 27853, 24 h. The data set is classed as functional.
The test system of data set [8] is Staphylococcus epidermidis. In words: Antibacterial activity against Staphylococcus epidermidis ATCC 12228 incubated for 24 hrs. The data set is classed as functional. The conditions noted are these: ATCC 12228, 24 h.
Data set [9] relates to Staphylococcus aureus. The data set is described as follows: Antibacterial activity against Staphylococcus aureus ATCC 29213 after 24 hrs. It counts as functional. To be noted: ATCC 29213, 24 h.
The test system of the next data set is Enterococcus faecalis. In words: Antibacterial activity against Enterococcus faecalis ATCC 29212 after 24 hrs. It counts as functional. To be noted: ATCC 29212, 24 h.
The subject of the next data set is Bacillus cereus. In words: Antibacterial activity against Bacillus cereus ATCC 11778 incubated for 24 hrs. It counts as functional. The conditions noted are these: ATCC 11778, 24 h.
Data set [10] has as its system Staphylococcus aureus. The data set is described as follows: Antibacterial activity against methicillin-resistant Staphylococcus aureus NT 1110301981H-T034-PVL+ incubated for 24 hrs. The data set is classed as functional.
Data set [11] is described as follows: Haemolytic activity in human RBC incubated for 1 hr. The data set is classed as ADME, cell-based, Erythrocyte. To be noted: human red blood cells.
Data set [12] has as its system Staphylococcus epidermidis. In words: Antibacterial activity against Staphylococcus epidermidis ATCC 27626 after overnight incubation by broth microdilution method. It counts as functional.
In data set [13] the test system is Escherichia coli. The data set is described as follows: Antibacterial activity against Escherichia coli K-12 ATCC 29181 after overnight incubation by broth microdilution method. It counts as functional.
The next data set deals with Klebsiella pneumoniae. In words: Antibacterial activity against Klebsiella pneumonia K6 ATCC 700603 after overnight incubation by broth microdilution method. The data set is classed as functional. To be noted: 700603 K6.
The subject of data set [14] is Staphylococcus aureus. The data set is described as follows: Antibacterial activity against vancomycin-resistant Staphylococcus aureus Mu50/ATCC 700699 after overnight incubation by broth microdilution method. The data set is classed as functional.
The test system of the next data set is Salmonella. The data set is described as follows: Antibacterial activity against Salmonella after overnight incubation by broth microdilution method. It counts as functional.
Data set [15] deals with Staphylococcus aureus. In words: Antibacterial activity against multidrug-resistant Staphylococcus aureus ATCC BAA-44 after overnight incubation by broth microdilution method. The data set is classed as functional.
Data set [16] is described as follows: Haemolytic activity in human RBC after 4 hrs. To be noted: human red blood cells. The data set is classed as ADME, cell-based, Erythrocyte.

These results are taken from ChEMBL document CHEMBL4376803, “Recent Advances in the Exploration of Therapeutic Analogues of Gramicidin S, an Old but Still Potent Antimicrobial Peptide” (J Med Chem, 2019).

The structures appear in SMILES notation. Values after ≈ are worked out from the molar mass of the structure shown.

By HC50 is commonly meant the concentration giving 50% haemolysis. Read a high HC50 as less damage to red cells. In data set [1], `NCCC[C@@H]1NC(=O)[C@H](CCCN)NC(=O)[C@@H]2CCCN2C(=O)[C@@H](Cc2ccccc2)NC(=O)[C@H](CCCN)NC(=O)[C@H](CCCN)NC(=O)[C@H](CCCN)NC(=O)[C@@H]2CCCN2C(=O)[C@@H](Cc2ccccc2)NC(=O)[C@H](CCCN)NC1=O` [listing 1 of 2 here] registered an HC50 above 200 µg/mL.
One may read the MIC as the least concentration at which growth counts as inhibited. As to `NCCC[C@@H]1NC(=O)[C@H](CCCN)NC(=O)[C@@H]2CCCN2C(=O)[C@@H](Cc2ccccc2)NC(=O)[C@H](CCCN)NC(=O)[C@H](CCCN)NC(=O)[C@H](CCCN)NC(=O)[C@@H]2CCCN2C(=O)[C@@H](Cc2ccccc2)NC(=O)[C@H](CCCN)NC1=O` [listing 2 of 2 here], the MIC against Pseudomonas aeruginosa [2] was above 100 µg/mL; in the data set with Escherichia coli [3] it was above 100 µg/mL; against Bacillus subtilis, 12.5 µg/mL (≈ 10.7 µM); against Staphylococcus aureus [4], 50 µg/mL (≈ 42.6 µM); in the data set with Priestia megaterium, 12.5 µg/mL (≈ 10.7 µM).
In the data set on Staphylococcus aureus [5], `CC(C)C[C@@H]1NC(=O)[C@@H](CCCN)NC(=O)[C@H](C(C)C)NC(=O)c2cccc(c2)/N=N/c2ccc(cc2)CNC(=O)[C@H](CCCN)NC(=O)[C@H](C(C)C)NC(=O)[C@@H]2CCCN2C(=O)[C@@H](Cc2ccccc2)NC1=O` registered an MIC of 256 µg/mL (≈ 251 µM).
Consider `CC(C)C[C@@H]1NC(=O)[C@H](CCCN)NC(=O)[C@H](C(C)C)NC(=O)[C@@H]2CCCN2C(=O)[C@@H](Cc2ccccc2)NC(=O)[C@H](CC(C)C)NC(=O)[C@H](CCCN)NC(=O)[C@H](C(C)C)NC(=O)[C@H]2CC[C@H](OCc3ccccc3)[C@@H](CNC1=O)O2`, for which the MIC in the data set with Escherichia coli [6] was 32 µg/mL (≈ 28 µM); with Pseudomonas aeruginosa [7], above 64 µg/mL; in data set [8] it was 8 µg/mL (≈ 6.99 µM); against Staphylococcus aureus [9] it was 16 µg/mL (≈ 14 µM); in the data set with Enterococcus faecalis, 16 µg/mL (≈ 14 µM); with Bacillus cereus it was 8 µg/mL (≈ 6.99 µM).
Regarding `CC(C)[C@@H]1NC(=O)[C@H](CCCN)NC(=O)[C@@H]2CCCN2C(=O)[C@@H](Cc2ccccc2)NC(=O)[C@H](CCCN)NC(=O)[C@@H](C(C)C)NC(=O)[C@H](CCCN)NC(=O)[C@@H]2CCCN2C(=O)[C@@H](Cc2ccccc2)NC(=O)[C@H](CCCN)NC1=O`, the minimum inhibitory concentration (MIC) against Escherichia coli [6], in the data set with Pseudomonas aeruginosa [7], in the data set with Staphylococcus aureus [9], against Staphylococcus aureus [10] and against Enterococcus faecalis was above 64 µg/mL in each case.
`CC(C)C[C@@H]1NC(=O)[C@H](CCCN)NC(=O)[C@H](C(C)C)NC(=O)[C@H](C)N(C)C(=O)[C@@H](Cc2ccccc2)NC(=O)[C@H](C)N(C)C(=O)[C@@H](CCCN)NC(=O)[C@H](C(C)C)NC(=O)[C@@H]2CCCN2C(=O)[C@@H](Cc2ccccc2)NC1=O`: in [11], the HC50 at 1 h came to 69.2 µg/mL. In addition, the minimal inhibitory concentration (MIC) in [12] is 1.8 µg/mL (≈ 1.63 µM); against Escherichia coli [13], 28 µg/mL (≈ 25.4 µM); against Klebsiella pneumoniae, 7 µg/mL (≈ 6.36 µM); in the data set on Staphylococcus aureus [14] it was 3.5 µg/mL (≈ 3.18 µM); against Salmonella, 28 µg/mL (≈ 25.4 µM); against Staphylococcus aureus [15], 7 µg/mL (≈ 6.36 µM).
`NCCC[C@@H]1NC(=O)[C@H](C23CC4CC(CC(C4)C2)C3)NC(=O)[C@H](CCCN)NC(=O)[C@@H]2CCCN2C(=O)[C@@H](Cc2ccccc2)NC(=O)[C@H](CCCN)NC(=O)[C@H](C23CC4CC(CC(C4)C2)C3)NC(=O)[C@H](CCCN)NC(=O)[C@@H]2CCCN2C(=O)[C@@H](Cc2ccccc2)NC1=O` gave an HC50 at 4 h in [16] of 107 µg/mL.
